In the CheMixHub viscosity set:
± gives the uncertainty stated by the source.

Test: xn = mol fraction of the nth substance listed

CCOCCO + CCCO
viscosity [mPa·s]
Conditions | 298.15 K | 303.15 K | 308.15 K | 313.15 K
101 kPa, x1 = 0.069 | 1.942 ± 0.017 | – | – | –
101 kPa, x1 = 0.1429 | 1.891 ± 0.018 | – | – | –
101 kPa, x1 = 0.2223 | 1.852 ± 0.021 | – | – | –
101 kPa, x1 = 0.3078 | 1.826 ± 0.023 | – | – | –
101 kPa, x1 = 0.4001 | 1.811 ± 0.026 | – | – | –
101 kPa, x1 = 0.5001 | 1.806 ± 0.029 | – | – | –
101 kPa, x1 = 0.6088 | 1.81 ± 0.033 | – | – | –
101 kPa, x1 = 0.7273 | 1.823 ± 0.037 | – | – | –
101 kPa, x1 = 0.8572 | 1.839 ± 0.042 | – | – | –
101.33 kPa, x1 = 0.0969 | 1.815 ± 0.011 | 1.607 ± 0.01 | 1.431 ± 0.009 | 1.272 ± 0.008
101.33 kPa, x1 = 0.199 | 1.761 ± 0.011 | 1.56 ± 0.01 | 1.395 ± 0.009 | 1.244 ± 0.008
101.33 kPa, x1 = 0.2917 | 1.73 ± 0.011 | 1.542 ± 0.01 | 1.376 ± 0.009 | 1.235 ± 0.008
101.33 kPa, x1 = 0.3971 | 1.659 ± 0.011 | 1.482 ± 0.01 | 1.326 ± 0.009 | 1.178 ± 0.008
101.33 kPa, x1 = 0.4928 | 1.711 ± 0.011 | 1.521 ± 0.01 | 1.366 ± 0.009 | 1.223 ± 0.008
101.33 kPa, x1 = 0.5933 | 1.721 ± 0.011 | 1.531 ± 0.01 | 1.377 ± 0.009 | 1.233 ± 0.008
101.33 kPa, x1 = 0.6923 | 1.732 ± 0.012 | 1.546 ± 0.011 | 1.386 ± 0.01 | 1.232 ± 0.009
101.33 kPa, x1 = 0.7987 | 1.754 ± 0.012 | 1.567 ± 0.011 | 1.403 ± 0.01 | 1.265 ± 0.009
101.33 kPa, x1 = 0.8853 | 1.774 ± 0.012 | 1.578 ± 0.011 | 1.418 ± 0.01 | 1.402 ± 0.01

CC(C)CCO + C1COCCO1
viscosity [mPa·s], 101 kPa
Conditions | x1 = 0.1 | x1 = 0.2067 | x1 = 0.3006 | x1 = 0.4011 | x1 = 0.5011 | x1 = 0.609 | x1 = 0.7009 | x1 = 0.8003 | x1 = 0.908
298.15 K | 1.135 ± 0.02 | 1.151 ± 0.02 | 1.189 ± 0.021 | 1.261 ± 0.022 | 1.37 ± 0.023 | 1.519 ± 0.025 | 1.737 ± 0.028 | 2.122 ± 0.034 | 2.79 ± 0.044
303.15 K | 1.049 ± 0.019 | 1.068 ± 0.019 | 1.116 ± 0.019 | 1.177 ± 0.02 | 1.265 ± 0.021 | 1.388 ± 0.023 | 1.562 ± 0.025 | 1.87 ± 0.03 | 2.429 ± 0.039
308.15 K | 0.9581 ± 0.017 | 0.9865 ± 0.017 | 1.039 ± 0.018 | 1.097 ± 0.019 | 1.156 ± 0.019 | 1.243 ± 0.021 | 1.359 ± 0.022 | 1.615 ± 0.026 | 2.081 ± 0.033

CC(C)CCO + OCCCO
viscosity [mPa·s], 100 kPa
Conditions | x1 = 0.0679 | x1 = 0.1388 | x1 = 0.218 | x1 = 0.3009 | x1 = 0.4084 | x1 = 0.4979 | x1 = 0.6034 | x1 = 0.7212 | x1 = 0.8537
298.15 K | 37.92 ± 0.25 | 35.56 ± 0.23 | 32.86 ± 0.21 | 29.98 ± 0.2 | 26.12 ± 0.17 | 22.84 ± 0.16 | 18.89 ± 0.13 | 14.42 ± 0.11 | 9.305 ± 0.084
303.15 K | 30.13 ± 0.2 | 28.24 ± 0.19 | 26.14 ± 0.17 | 23.83 ± 0.16 | 20.79 ± 0.14 | 18.2 ± 0.13 | 15.09 ± 0.11 | 11.57 ± 0.094 | 7.532 ± 0.076
308.15 K | 25.86 ± 0.17 | 24.27 ± 0.16 | 22.55 ± 0.15 | 20.66 ± 0.14 | 18.08 ± 0.13 | 15.91 ± 0.12 | 13.3 ± 0.1 | 10.25 ± 0.088 | 6.745 ± 0.073

CCOCCO + Cc1ccc(C)cc1
viscosity [mPa·s], 101 kPa
Conditions | 298.15 K | 308.15 K
x1 = 0.0551 | 0.632 ± 0.011 | 0.555 ± 0.01
x1 = 0.1489 | 0.672 ± 0.012 | 0.584 ± 0.011
x1 = 0.2499 | 0.725 ± 0.013 | 0.625 ± 0.011
x1 = 0.3507 | 0.792 ± 0.014 | 0.674 ± 0.012
x1 = 0.4514 | 0.875 ± 0.015 | 0.735 ± 0.013
x1 = 0.5001 | 0.922 ± 0.016 | 0.769 ± 0.013
x1 = 0.5497 | 0.975 ± 0.016 | 0.808 ± 0.014
x1 = 0.6526 | 1.106 ± 0.018 | 0.9 ± 0.015
x1 = 0.7513 | 1.262 ± 0.021 | 1.01 ± 0.017
x1 = 0.8499 | 1.456 ± 0.024 | 1.143 ± 0.019
x1 = 0.9549 | 1.717 ± 0.027 | 1.319 ± 0.022

CCOCCO + CO
298.15 K, 101 kPa
Conditions | viscosity [mPa·s]
x1 = 0.038 | 0.6216 ± 0.0055
x1 = 0.0816 | 0.7062 ± 0.0066
x1 = 0.1322 | 0.7916 ± 0.0079
x1 = 0.1916 | 0.8844 ± 0.0096
x1 = 0.2623 | 0.9885 ± 0.012
x1 = 0.3478 | 1.114 ± 0.015
x1 = 0.4534 | 1.255 ± 0.019
x1 = 0.5871 | 1.422 ± 0.025
x1 = 0.7619 | 1.625 ± 0.034

CNC(C)=O + CC(C)O
303.15 K, 101 kPa
Conditions | viscosity [mPa·s]
x1 = 0.11 | 1.922 ± 0.051
x1 = 0.2078 | 2.005 ± 0.053
x1 = 0.3061 | 2.099 ± 0.055
x1 = 0.3988 | 2.217 ± 0.059
x1 = 0.4962 | 2.377 ± 0.063
x1 = 0.5547 | 2.49 ± 0.066
x1 = 0.6962 | 2.824 ± 0.075
x1 = 0.8005 | 3.115 ± 0.083
x1 = 0.8927 | 3.418 ± 0.091

CC(C)CCO + COCCO
303.15 K, 101.3 kPa
Conditions | viscosity [mPa·s]
x2 = 0.1536 | 2.477 ± 0.029
x2 = 0.2181 | 2.305 ± 0.027
x2 = 0.3068 | 2.095 ± 0.024
x2 = 0.3756 | 1.955 ± 0.023
x2 = 0.4802 | 1.772 ± 0.021
x2 = 0.6881 | 1.512 ± 0.018
x2 = 0.7438 | 1.47 ± 0.017
x2 = 0.8293 | 1.413 ± 0.016
x2 = 0.9356 | 1.38 ± 0.016

CCOCCO + CCCCCCC
viscosity [mPa·s], 101.33 kPa
Conditions | x1 = 0.1091 | x1 = 0.1973 | x1 = 0.299 | x1 = 0.4 | x1 = 0.5014 | x1 = 0.6074 | x1 = 0.6986 | x1 = 0.799 | x1 = 0.8989
298.15 K | 0.422 ± 0.012 | 0.455 ± 0.013 | 0.51 ± 0.014 | 0.585 ± 0.016 | 0.671 ± 0.018 | – | 0.922 ± 0.023 | 1.12 ± 0.027 | 1.39 ± 0.033
303.15 K | 0.398 ± 0.012 | 0.428 ± 0.012 | 0.478 ± 0.014 | 0.541 ± 0.015 | 0.619 ± 0.017 | 0.673 ± 0.018 | 0.843 ± 0.021 | 1.013 ± 0.025 | 1.247 ± 0.03
308.15 K | 0.377 ± 0.011 | 0.404 ± 0.012 | 0.449 ± 0.013 | 0.506 ± 0.014 | 0.574 ± 0.016 | 0.63 ± 0.017 | 0.772 ± 0.02 | 0.927 ± 0.023 | 1.133 ± 0.028
313.15 K | 0.355 ± 0.011 | 0.382 ± 0.011 | 0.422 ± 0.012 | 0.472 ± 0.013 | 0.535 ± 0.015 | 0.592 ± 0.016 | 0.713 ± 0.019 | 0.844 ± 0.021 | 1.026 ± 0.025

Oc1ccc(Cl)cc1 + CCCCN(CCCC)CCCC
298.16 K, 101 kPa
Conditions | viscosity [mPa·s]
x1 = 0.5057 | 14.04 ± 0.29
x1 = 0.5498 | 23.8 ± 0.51
x1 = 0.6004 | 46.15 ± 1.1
x1 = 0.6534 | 94.2 ± 3.1
x1 = 0.7034 | 222.8 ± 12
x1 = 0.714 | 261.7 ± 15
x1 = 0.7471 | 389.7 ± 27
x1 = 0.7798 | 438.6 ± 32
x1 = 0.8047 | 424.7 ± 30
x1 = 0.8194 | 339.1 ± 21
x1 = 0.8508 | 228.2 ± 12
x1 = 0.8615 | 173.1 ± 7.7
x1 = 0.88 | 141.3 ± 5.6
x1 = 0.9041 | 99.6 ± 3.2
x1 = 0.915 | 73.06 ± 1.9
x1 = 0.9457 | 46.28 ± 0.98
x1 = 0.9798 | 26.23 ± 0.43
x2 = 0.002811 | 19.56 ± 0.28

CC(C)CCCCCCCOC(=O)c1ccccc1C(=O)OCCCCCCCC(C)C + O
viscosity [mPa·s], 101 kPa
Conditions | 293.23 K | 298.26 K
x2 = 0.0005 | 122.8 ± 2.6 | 87.79 ± 1.6
x2 = 0.00265 | 122.3 ± 2.6 | 87.38 ± 1.6

CNC(C)=O + CCO
303.15 K, 101 kPa
Conditions | viscosity [mPa·s]
x1 = 0.1049 | 1.108 ± 0.029
x1 = 0.2021 | 1.237 ± 0.033
x1 = 0.3699 | 1.52 ± 0.04
x1 = 0.4024 | 1.584 ± 0.042
x1 = 0.5109 | 1.833 ± 0.048
x1 = 0.6023 | 2.084 ± 0.055
x1 = 0.6979 | 2.402 ± 0.063
x1 = 0.7994 | 2.792 ± 0.074
x1 = 0.895 | 3.236 ± 0.086
